Earlier results on three molecules are cited in US20070218155A1, “Methods and compositions for treating dyslipidaemia” (priority 2004, published 2007).

The conditions of data set [1]: literature statement; cited from earlier work.
The target of the next data set is T1, HMG CoA reductase (Homo sapiens, UniProt P04035).
T1 construct: host or cells: HepG2
T1 sequence (P04035 1-888): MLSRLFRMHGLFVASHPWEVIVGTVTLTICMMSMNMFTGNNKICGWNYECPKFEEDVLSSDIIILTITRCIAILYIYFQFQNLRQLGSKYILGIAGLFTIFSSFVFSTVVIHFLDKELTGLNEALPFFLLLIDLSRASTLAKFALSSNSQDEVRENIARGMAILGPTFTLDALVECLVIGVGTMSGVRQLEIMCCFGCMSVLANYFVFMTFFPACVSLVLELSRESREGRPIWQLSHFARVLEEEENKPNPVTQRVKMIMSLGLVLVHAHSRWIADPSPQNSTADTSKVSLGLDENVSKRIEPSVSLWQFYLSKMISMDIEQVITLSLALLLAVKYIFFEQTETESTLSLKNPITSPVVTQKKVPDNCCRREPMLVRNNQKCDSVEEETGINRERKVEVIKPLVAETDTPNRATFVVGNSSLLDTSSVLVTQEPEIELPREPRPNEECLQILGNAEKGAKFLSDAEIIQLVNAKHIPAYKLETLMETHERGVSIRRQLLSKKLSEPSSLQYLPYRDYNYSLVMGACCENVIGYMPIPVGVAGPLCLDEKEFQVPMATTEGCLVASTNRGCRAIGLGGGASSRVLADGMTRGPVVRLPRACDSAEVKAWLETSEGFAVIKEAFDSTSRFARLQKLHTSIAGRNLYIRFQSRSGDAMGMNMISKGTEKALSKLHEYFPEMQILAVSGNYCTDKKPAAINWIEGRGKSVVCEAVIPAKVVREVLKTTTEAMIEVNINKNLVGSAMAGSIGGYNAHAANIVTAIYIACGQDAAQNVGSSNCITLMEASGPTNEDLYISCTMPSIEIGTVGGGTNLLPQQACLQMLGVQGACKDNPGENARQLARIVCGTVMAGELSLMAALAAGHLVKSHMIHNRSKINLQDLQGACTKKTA
Conditions: HepG2 cells; comparison value; cited from earlier work.

The subject of data set [2] is DGAT activity in intact Raji cells. Conditions: Tabata et al.; cited from earlier work.

On to `CC(C)=CCc1c(O)cc(O)c2c1O[C@H](c1ccc(O)cc1)CC2=O` [8-prenylnaringenin, 8-prenylnaringenin], for which the estrogenic activity result in data set [1] was “potent estrogenic activity”.

`CC(C)c1c(C(=O)Nc2ccccc2)c(-c2ccccc2)c(-c2ccc(F)cc2)n1CC[C@@H](O)C[C@@H](O)CC(=O)O` [Atorvastatin]: on HMG CoA reductase, the “inhibition of HMG CoA reductase” value is listed as “about 96%”. For `COc1cc(O)c(CC=C(C)C)c(O)c1C(=O)/C=C/c1ccc(O)cc1` [xanthohumol], in data set [2], the “inhibition of triacylglycerol formation / DGAT activity in intact Raji cells” value is given as “inhibited DGAT activity specifically in human cells”. For the same molecule, in data set [1], the estrogenic activity result was “does not exhibit estrogenic activity”.
